In patent US9809623B2, “α4β7 peptide monomer and dimer antagonists” (Protagonist Therapeutics, Inc., priority 2014, dated 2017):
Numbered stars: 1 amine (or outer) side, 2 acyl side, 3 side chain; on linkers, the order of the positions; unused ones are H or OH. Bridge positions count the residues as written; N and C are the ends. Square brackets hold non-standard residues; d marks the D form. Peptide text beside a SMILES is read from it. I, II: the chains in the order shown. 2Nal = N[C@@H](Cc1ccc2ccccc2c1)C(=O)O; Diglycolyl = O=C(COCC(=O)[*:2])[*:1]; NMeR = CN[C@@H](CCCNC(=N)N)C(=O)O; NMeK = CN[C@@H](CCCCN)C(=O)O; Pen = CC(C)(S)[C@H](N)C(=O)O

Assays:
Intestinal Wash Assay = type: in vitro ADME; parameters: dose or concentration left out as unconfirmed; details: rat, rat intestinal wash fluid (small intestine); Table 4-C, t1/2
Experimental: Intestinal wash assay solution was prepared from rats fasted for at least 6 hours prior. The animals were euthanized and a midline incision was made from the point of the jaw to the pubis. The abdomen and chest were opened by making 2 incisions through the anterior chest wall on either side. Hemostats were used to clamp off both ends of the animal's stomach—where the esophagus meets the stomach and where the stomach meets the duodenum. A hemostat was also used to clamp 2-3 cm down the intestine from where the stomach meets the duodenum.
Intestinal wash assay solution was prepared by separating 20 cm of the small intestine from the body. Once separated 20 cm, the end was clamped with a hemostat and the section cut from the body, leaving the hemostats in place on the removed section. 1 mL of chilled saline was drawn up with a 1 mL syringe. One end of the intestine was held up and the clamp removed. Approximately 2-2.5 cm of the gavage needle was inserted into the intestine, and the saline was slowly injected. The fluid was massaged down the length of the intestine using gloved fingers. The gavage needle was removed and the clamp was replaced on the end of the intestine. The intestine was sat straight and a q-tip was run firmly up and down the length of the outside of the intestine approximately 3-6 times to mix the enzymes with the saline. One end of the intestine was held up and some of the fluid was carefully moved at the top down. The clamp was removed and that end of the intestine was set into a small weigh boat on ice. The other end of the intestine was carefully picked up and held vertically. Gloved fingers were gently run down it to squeeze the fluid into the container. The previous steps saline injection and fluid procurement steps were repeated twice using only 0.5 mL of chilled saline. The sample was pipetted from the weigh boat into a centrifuge tube and placed on ice. All intestinal wash samples were spun down in a cold centrifuge at 12,000×g for 10 minutes. The supernatant from the top of each centrifuged sample was pipetted into cryotubes, and kept on ice until use.
Intestinal wash assays were performed using intestinal wash assay solution prepared as described above. A sufficient amount of rat intestinal wash was thawed. For each sample, 200 uL of rat intestinal wash fluid was pipetted into 1.5 mL Eppendorf tubes (number of tubes for experiment=number of test peptides×N). The tubes were pre-incubated for about 10 minutes in a water bath at 37° C.
Peptide working solutions ([…]) were prepared by combining 2 μl of 10 mM DMSO stock with 128 μl 100 mM Tris pH 7.5.
Peptide quench solvent (50% ACN-50% MeOH-5% Formic Acid)+IS (5 ug/ml; 1 ul of 10 mg/mL IS per 2 mL quench solvent) was prepare and a quench plate prepared and placed on ice. 200 ul of quench solution was added to each well of the quench plate for T=0, 10, 20, 30, 60 and 180 min collection.
For each test sample and a positive control, 30 ul of peptide working solution was added to a tube of intestinal wash fluid. The tube was gently vortexed and 30 ul was immediately removed and quenched in T=0 well of quench plate (pipetted directly into the quench solution). This well was covered tightly to prevent evaporation. 30 ul aliquots were removed at T=10 min, T=20 min, T=30 min, T=60 min, and T=180 min, and quenched. When all time points were collected, the quench plate was centrifuged at 10,000 rpm for 10 minutes. 150 uL of each supernatant was transferred to a polypropylene 96-well collection plate. 300 ul Mobile Phase A was added to each collection, and LC/MS/MS analysis was performed to determine the amount or concentration of peptide remaining in each test sample and positive control.

Plasma Stability Assay = type: in vitro ADME; details: rat, Table 4-C, t1/2
Experimental: 0.5 mL of rat plasma (one tube per peptide, volume depends on how many time points are to be collected, 50 μL per time point) was added to each well of a 96-well polypropylene plate, and the tubes were incubated in a heated water bath, preset to 37° C. with gentle shaking. 1 μL of 10 mM peptide stock solution was added to each tub, and then 200 μL of Acetonitrile w/0.1% Formic Acid was added to each tube (1:4). Samples were collected at the following time points: 0, 10, 30, 45, 60, 120, 180 mins. When all time points were collected, the plate was centrifuged at 5000 rpm for 5 mins. LCM analysis was performed by pipetting 100 μL of each sample to appropriate well of a 96-well deep plate. 100 μL of an internal standard peptide (1 ug/mL) was added in Mobile Phase A to each well. The plate was vortexed and injected

Row | Compound | half-life (Intestinal Wash Assay) [min] | half-life at 20 μM (Plasma Stability Assay) [min]
1 | CC(=O)N[C@@H]1C(=O)N(C)[C@@H](CCCNC(=N)N)C(=O)N[C@@H](CO)C(=O)N[C@@H](CC(=O)O)C(=O)N[C@@H]([C@@H](C)O)C(=O)N[C@@H](CC(C)C)C(=O)N[C@H](C(=O)N[C@@H](Cc2c[nH]c3ccccc23)C(=O)N[C@@H](CCC(=O)O)C(=O)N(C)[C@@H](CCCCNC(=O)COCC(=O)NCCCC[C@@H](C(N)=O)N(C)C(=O)[C@H](CCC(=O)O)NC(=O)[C@H](Cc2c[nH]c3ccccc23)NC(=O)[C@H]2NC(=O)[C@H](CC(C)C)NC(=O)[C@H]([C@@H](C)O)NC(=O)[C@H](CC(=O)O)NC(=O)[C@H](CO)NC(=O)[C@H](CCCNC(=N)N)N(C)C(=O)[C@@H](NC(C)=O)C(C)(C)SSC2(C)C)C(N)=O)C(C)(C)SSC1(C)C [compound 215, [Ac-Pen-(N-Me-Arg)-Ser-Asp-Thr-Leu-Pen-Trp-Glu-(N-Me-Lys)-NH2]2-DIG] (I: Ac-[Pen][NMeR]SDTL[Pen]WE[NMeK]-NH2 / II: Ac-[Pen][NMeR]SDTL[Pen]WE[NMeK]-NH2; disulfide I:1-I:7, II:1-II:7 (inferred); linker I:10-II:10 via Diglycolyl (inferred)) | > 360 | > 360
2 | CC(=O)N[C@H]1CSSC[C@@H](C(=O)NCC(=O)N[C@@H](CCC(=O)O)C(=O)N[C@@H](CCCCN)C(=O)O)NC(=O)[C@H](CC(C)C)NC(=O)[C@H]([C@@H](C)O)NC(=O)[C@H](CC(=O)O)NC(=O)[C@H](CO)NC(=O)[C@H](CCCNC(=N)N)N(C)C1=O [compound 199, Ac-C-N-Me-R-S-D-T-L-C-G-E-K-OH] (Ac-C[NMeR]SDTLCGEK-OH; disulfide 1-7) |  | 81
3 | CC(=O)N[C@H]1CSSC(C)(C)[C@@H](C(=O)N[C@@H](CCC(=O)O)C(=O)N[C@H](CCCCNC(=O)COCC(=O)NCCCC[C@@H](NC(=O)[C@H](CCC(=O)O)NC(=O)[C@H]2NC(=O)[C@H](CC(C)C)NC(=O)[C@H]([C@@H](C)O)NC(=O)[C@H](CC(=O)O)NC(=O)[C@H](CO)NC(=O)[C@H](CCCNC(=N)N)N(C)C(=O)[C@@H](NC(C)=O)CSSC2(C)C)C(N)=O)C(N)=O)NC(=O)[C@H](CC(C)C)NC(=O)[C@H]([C@@H](C)O)NC(=O)[C@H](CC(=O)O)NC(=O)[C@H](CO)NC(=O)[C@H](CCCNC(=N)N)N(C)C1=O [compound 205, (Ac-C-N-Me-R-S-D-T-L-Pen-E-k-NH2)2-DIG] (I: Ac-C[NMeR]SDTL[Pen]E[dK]-NH2 / II: Ac-C[NMeR]SDTL[Pen]E[dK]-NH2; disulfide I:1-I:7, II:1-II:7 (inferred); linker I:9-II:9 via Diglycolyl (inferred)) |  | > 360
4 | CC(=O)N[C@@H]1C(=O)N(C)[C@@H](CCCNC(=N)N)C(=O)N[C@@H](CO)C(=O)N[C@@H](CC(=O)O)C(=O)N[C@@H]([C@@H](C)O)C(=O)N[C@@H](CC(C)C)C(=O)N[C@H](C(=O)N[C@@H](Cc2ccc3ccccc3c2)C(=O)N[C@@H](CCC(=O)O)C(=O)N[C@H](CCCCNC(=O)COCC(=O)NCCCC[C@@H](NC(=O)[C@H](CCC(=O)O)NC(=O)[C@H](Cc2ccc3ccccc3c2)NC(=O)[C@H]2NC(=O)[C@H](CC(C)C)NC(=O)[C@H]([C@@H](C)O)NC(=O)[C@H](CC(=O)O)NC(=O)[C@H](CO)NC(=O)[C@H](CCCNC(=N)N)N(C)C(=O)[C@@H](NC(C)=O)C(C)(C)SSC2(C)C)C(N)=O)C(N)=O)C(C)(C)SSC1(C)C [compound 212, (Ac-Pen-N-Me-R-S-D-T-L-Pen-2-Nal-E-k-NH2)2-DIG] (I: Ac-[Pen][NMeR]SDTL[Pen][2Nal]E[dK]-NH2 / II: Ac-[Pen][NMeR]SDTL[Pen][2Nal]E[dK]-NH2; disulfide I:1-I:7, II:1-II:7 (inferred); linker I:10-II:10 via Diglycolyl (inferred)) | 98 | 
5 | CC(=O)N[C@@H]1C(=O)N(C)[C@@H](CCCNC(=N)N)C(=O)N[C@@H](CO)C(=O)N[C@@H](CC(=O)O)C(=O)N[C@@H]([C@@H](C)O)C(=O)N[C@@H](CC(C)C)C(=O)N[C@H](C(=O)N[C@@H](Cc2c[nH]c3ccccc23)C(=O)N[C@H](CCC(=O)O)C(=O)N[C@H](CCCCNC(=O)COCC(=O)NCCCC[C@@H](NC(=O)[C@@H](CCC(=O)O)NC(=O)[C@H](Cc2c[nH]c3ccccc23)NC(=O)[C@H]2NC(=O)[C@H](CC(C)C)NC(=O)[C@H]([C@@H](C)O)NC(=O)[C@H](CC(=O)O)NC(=O)[C@H](CO)NC(=O)[C@H](CCCNC(=N)N)N(C)C(=O)[C@@H](NC(C)=O)C(C)(C)SSC2(C)C)C(=O)O)C(=O)O)C(C)(C)SSC1(C)C [compound 216, (Ac-Pen-N-Me-R-S-D-T-L-Pen-W-e-k-OH)2-DIG] (I: Ac-[Pen][NMeR]SDTL[Pen]W[dE][dK]-OH / II: Ac-[Pen][NMeR]SDTL[Pen]W[dE][dK]-OH; disulfide I:1-I:7, II:1-II:7 (inferred); linker I:10-II:10 via Diglycolyl (inferred)) | > 360 | > 180
6 | CC(=O)N[C@H]1CSSC[C@@H](C(=O)NCC(=O)N[C@@H](CCC(=O)O)C(=O)N[C@@H](CCCCNC(=O)COCC(=O)NCCCC[C@H](NC(=O)[C@H](CCC(=O)O)NC(=O)CNC(=O)[C@@H]2CSSC[C@H](NC(C)=O)C(=O)N(C)[C@@H](CCCNC(=N)N)C(=O)N[C@@H](CO)C(=O)N[C@@H](CC(=O)O)C(=O)N[C@@H]([C@@H](C)O)C(=O)N[C@@H](CC(C)C)C(=O)N2)C(=O)O)C(=O)O)NC(=O)[C@H](CC(C)C)NC(=O)[C@H]([C@@H](C)O)NC(=O)[C@H](CC(=O)O)NC(=O)[C@H](CO)NC(=O)[C@H](CCCNC(=N)N)N(C)C1=O [compound 201, (Ac-C-N-Me-R-S-D-T-L-C-G-E-K-OH)2-DIG] (I: Ac-C[NMeR]SDTLCGEK-OH / II: Ac-C[NMeR]SDTLCGEK-OH; disulfide I:1-I:7, II:1-II:7 (inferred); linker I:10-II:10 via Diglycolyl (inferred)) |  | 121
7 | CC(=O)N[C@@H]1C(=O)N(C)[C@@H](CCCNC(=N)N)C(=O)N[C@@H](CO)C(=O)N[C@@H](CC(=O)O)C(=O)N[C@@H]([C@@H](C)O)C(=O)N[C@@H](CC(C)C)C(=O)N[C@H](C(=O)N[C@@H](Cc2c[nH]c3ccccc23)C(=O)N[C@H](CCC(=O)O)C(=O)N[C@H](CCCCNC(=O)COCC(=O)NCCCC[C@@H](NC(=O)[C@@H](CCC(=O)O)NC(=O)[C@H](Cc2c[nH]c3ccccc23)NC(=O)[C@H]2NC(=O)[C@H](CC(C)C)NC(=O)[C@H]([C@@H](C)O)NC(=O)[C@H](CC(=O)O)NC(=O)[C@H](CO)NC(=O)[C@H](CCCNC(=N)N)N(C)C(=O)[C@@H](NC(C)=O)C(C)(C)SSC2(C)C)C(N)=O)C(N)=O)C(C)(C)SSC1(C)C [compound 211, (Ac-Pen-N-Me-R-S-D-T-L-Pen-W-e-k-NH2)2-DIG] (I: Ac-[Pen][NMeR]SDTL[Pen]W[dE][dK]-NH2 / II: Ac-[Pen][NMeR]SDTL[Pen]W[dE][dK]-NH2; disulfide I:1-I:7, II:1-II:7 (inferred); linker I:10-II:10 via Diglycolyl (inferred)) | 179 | 
8 | CC(=O)N[C@H]1CSSC(C)(C)[C@@H](C(=O)N[C@H](CCCCN)C(N)=O)NC(=O)[C@H](CC(C)C)NC(=O)[C@H]([C@@H](C)O)NC(=O)[C@H](CC(=O)O)NC(=O)[C@H](CO)NC(=O)[C@H](CCCNC(=N)N)N(C)C1=O [compound 202, Ac-C-N-Me-R-S-D-T-L-Pen-k-NH2] (Ac-C[NMeR]SDTL[Pen][dK]-NH2; disulfide 1-7) |  | > 360
9 | CC(=O)N[C@H]1CSSC[C@@H](C(=O)NCC(=O)N[C@@H](CCC(=O)O)C(N)=O)NC(=O)[C@H](CC(C)C)NC(=O)[C@H]([C@@H](C)O)NC(=O)[C@H](CC(=O)O)NC(=O)[C@H](CO)NC(=O)[C@H](CCCNC(=N)N)N(C)C1=O [compound 198, Ac-C-N-Me-R-S-D-T-L-C-G-E-NH2] (Ac-C[NMeR]SDTLCGE-NH2; disulfide 1-7) | 30 | 
